≈ marks a conversion by molar mass, not a printed value. Where two headings read alike, the source gives them in different places.
How the values were obtained:
Assay in all cases: Serum MIC, broth micro-dilution
Type in all cases: cell-based
[1] = tested on: Acinetobacter baumannii ATCC 17978; settings: Acinetobacter baumannii, ATCC17978
Protocol: (§1) In vitro antimicrobial activity of each compound was determined by measuring minimal inhibitor concentrations (MICs) using the broth micro-dilution technique as approved by the Clinical and Laboratory Standards Institute (CLSI) (Methods for Dilution Antimicrobial Susceptibility Tests for Bacteria that Grow Aerobically; Approved Standard—Eighth Edition. CLSI document M07-A8. Wayne, Pa.: Clinical and Laboratory Standards; 2009). Antibacterial activity was measure against Escherichia coli strain ATCC 25922 (E. coli), Klebsiella pneumoniae ATCC 700603 (K. pneumoniae), Acinetobacter baumannii ATCC 17978 (A. baumannii), and Pseudomonas aeruginosa PA01 (P. aeruginosa), each of which is representative of a clinically relevant Gram-negative species. Cells were inoculated onto plates of Mueller Hinton Agar and grown at 37° C. for 16-18 hours. Inocula suspensions were prepared by scraping cells into 1 mL of testing media (Mueller Hinton II cation adjusted Broth) and diluting to a final OD 600 nm of 0.01.
(§2) Test compounds were prepared in DMSO at a concentration of […]. The compounds were tested under several different dilution formats. In protocol 1, the compound stocks were diluted into testing media at a concentration of 64 μg/ml and serial 2-fold dilutions were made in the same media, in 96-well U bottom microtiter dishes, for a total of 10 compound concentrations. In protocol 2, the compound stocks were diluted into testing media at a concentration of 4 μg/mL and serial 2-fold dilutions were made in the same media, in 96-well U bottom microtiter dishes, for a total of 10 compound concentrations. In protocol 3, compound stocks were diluted into testing media at a concentration of 0.5 μg/mL, with serial 2-fold dilutions conducted as described above. In protocol 4, compound stocks were diluted into testing media at a concentration of 0.13 μg/mL, with serial 2-fold dilutions conducted as described above. Inocula suspensions were added to the 2-fold serial dilutions of test compounds to a final density of OD 600 nm of 0.0005 and incubated at 35° C. for 22 hours. […] To assess antimicrobial activity in the presence of plasma proteins, MICs were also determined in growth media supplemented with 50% serum. Bacterial inocula and test compound dilution plates were prepared using the same protocol as described above for the standard MICs assay, with the exception that a mixture of 50% v/v Mueller Hinton II cation adjusted Broth and 50% v/v mouse sterile filtered serum (Equitech-Bio) was used in place of 100% Mueller Hinton II cation adjusted Broth. The results are listed in Table 3 (MIC, IC50 values micromolar).

[2] = tested on: Klebsiella pneumoniae ATCC 700603; settings: Klebsiella pneumoniae, ATCC700603
Protocol: as §1, §2

[3] = tested on: Pseudomonas aeruginosa PA01; settings: Pseudomonas aeruginosa, PA01, read-out: P. aeruginosa 01 Serum MIC
Protocol: as §1, §2

[4] = tested on: Escherichia coli strain ATCC 25922; settings: Escherichia coli, ATCC25922, read-out: E. coli 25922 Serum MIC
Protocol: as §1, §2

[5] = 50% v/v mouse serum in Mueller Hinton II cation adjusted Broth, 35° C., 22 hours, Table 4, read-out: A. baumanii 17978 Serum MIC
[6] = 50% v/v mouse serum in Mueller Hinton II cation adjusted Broth, 35° C., 22 hours, Table 5, read-out: Acinetobacter baumanii 17978 Serum MIC
[7] = 50% v/v mouse serum in Mueller Hinton II cation adjusted Broth, 35° C., 22 hours, Table 4, read-out: K pneumoniae 700603 Serum MIC
[8] = 50% v/v mouse serum in Mueller Hinton II cation adjusted Broth, 35° C., 22 hours, Table 4
[9] = 50% v/v mouse serum, compounds of Table 1, Table 7, read-out: A. baumanii 17978 Serum MIC
[10] = 50% v/v mouse serum, compounds of Table 1, Table 7, read-out: K. pneumoniae 700603 Serum MIC
[11] = 50% v/v mouse serum, compounds of Table 1, Table 7

Row | Compound | MIC [1, 5] | MIC [1, 6] | MIC [2, 7] | MIC [3, 8] | MIC [4, 8] | MIC [1, 9] | MIC [2, 10] | MIC [3, 11] | MIC [4, 11]
1 | CNc1nc(-c2ccc(C(C)(C)C)cc2)nc(C)c1C(=O)N[C@@H](CNS(N)(=O)=O)C(=O)N(C)[C@@H]1C(=O)N[C@@H](C)C(=O)N[C@H](C(=O)O)Cc2ccc(OC[C@H](O)CN)c(c2)-c2cc1cc(OC[C@H](O)CN)c2O [Example 56, (8S,11S,14S)-3,17-bis[(2R)-3-amino-2-hydroxy-propoxy]-14-[[(2S)-2-[[2-(4-tert-butylphenyl)-4-methyl-6-(methyl-amino)pyrimidine-5-carbonyl]amino]-3-(sulfamoylamino)-propanoyl]-methyl-amino]-18-hydroxy-11-methyl-10,13-dioxo-9,12-diazatri-cyclo[13.3.1.12,6]icosa-1(18),2(20),3,5,15(19), 16-hexaene-8-carboxylic acid] | 6 µM (≈ 6.13 µg/mL) | 6 µM (≈ 6.13 µg/mL) | 0.5 µM (≈ 0.511 µg/mL) | 3 µM (≈ 3.07 µg/mL) | 0.25 µM (≈ 0.256 µg/mL) |  |  |  | 
2 | Cc1nc(-c2ccc(C(C)(C)C)cc2)nc(N)c1C(=O)N[C@@H](CCNS(N)(=O)=O)C(=O)N(C)[C@@H]1C(=O)N[C@@H](C)C(=O)N[C@H](C(=O)O)Cc2ccc(OC[C@H](O)CN)c(c2)-c2cc1cc(OC[C@H](O)CN)c2O [Example 76, (8S,11S,14S)-14-[[(2S)-2-[[4-amino-2-(4-tert-butylphenyl)-6-methyl-pyrimidine-5-carbonyl]amino]-4-(sulfamoylamino)-butanoyl]-methyl-amino]-3,17-bis[(2R)-3-amino-2-hydroxy-propoxy]-18-hydroxy-11-methyl-10,13-dioxo-9,12-diazatricyclo-[13.3.1.12,6]icosa-1(18),2(20),3,5,15(19), 16-hexaene-8-carboxylic acid] | 24 µM (≈ 24.5 µg/mL) | 24 µM (≈ 24.5 µg/mL) | 1.5 µM (≈ 1.53 µg/mL) | 16 µM (≈ 16.4 µg/mL) | 2 µM (≈ 2.04 µg/mL) |  |  |  | 
3 | Cc1cc(C(C)(C)C)cc(O)c1-c1nc(C)c(C(=O)N[C@@H](CNS(N)(=O)=O)C(=O)N(C)[C@@H]2C(=O)N[C@@H](C)C(=O)N[C@H](C(=O)O)Cc3ccc(OC[C@H](O)CN)c(c3)-c3cc2cc(OC[C@H](O)CN)c3O)c(N)n1 [Example 48, (8S,11S,14S)-14-[[(2S)-2-[[4-amino-2-(4-tert-butyl-2-hydroxy-6-methyl-phenyl)-6-methyl-pyrimidine-5-carbonyl]amino]-3-(sulfamoylamino)-propanoyl]-methyl-amino]-3,17-bis[(2R)-3-amino-2-hydroxy-propoxy]-18-hydroxy-11-methyl-10,13-dioxo-9,12-diazatri-cyclo[13.3.1.12,6]icosa-1(18),2(20),3,5,15(19), 16-hexaene-8-carboxylic acid] | 16 µM (≈ 16.6 µg/mL) | 16 µM (≈ 16.6 µg/mL) | 1 µM (≈ 1.04 µg/mL) | 3 µM (≈ 3.11 µg/mL) | 0.75 µM (≈ 0.779 µg/mL) |  |  |  | 
4 | Cc1nc(-c2ccc3c(c2)CCC3(C)C)nc(C)c1C(=O)N[C@@H](CCN)C(=O)N(C)[C@@H]1C(=O)N[C@@H](C)C(=O)N[C@H](C(=O)O)Cc2ccc(OCCN)c(c2)-c2cc1ccc2OCCN (racemic) [Example 647] |  |  |  |  |  | 64 µM (≈ 56.2 µg/mL) | 1 µM (≈ 0.878 µg/mL) | 64 µM (≈ 56.2 µg/mL) | 0.5 µM (≈ 0.439 µg/mL)
5 | Cc1nc(-c2ccc(OCCC(C)(C)C)cc2)nc(N)c1C(=O)N[C@@H](CNS(N)(=O)=O)C(=O)N(C)[C@@H]1C(=O)N[C@@H](C)C(=O)N[C@H](C(=O)O)Cc2ccc(OC[C@H](O)CN)c(c2)-c2cc1cc(OC[C@H](O)CN)c2O [Example 3, (8S,11S,14S)-18-hydroxy-11-methyl-14-[methyl-[(2S)-2-[[4-amino-2-[4-(3,3-dimethylbutoxy)-phenyl]-6-methyl-pyrimidine-5-carbonyl]amino]-3-(sulfamoylamino)-propanoyl]amino]-10,13-dioxo-3,17-bis[(2R)-3-amino-2-hydroxy-propoxy]-9,12-diazatricyclo-[13.3.1.12,6]icosa-1(18),2(20),3,5,15(19), 16-hexaene-8-carboxylic acid] | 12 µM (≈ 12.6 µg/mL) | 12 µM (≈ 12.6 µg/mL) | 0.5 µM (≈ 0.526 µg/mL) | 4 µM (≈ 4.21 µg/mL) | 0.5 µM (≈ 0.526 µg/mL) |  |  |  | 
6 | CCCCCOc1ccc(-c2nc(C)c(C(=O)N[C@@H](CCN)C(=O)N(C)[C@@H]3C(=O)N[C@@H](C)C(=O)N[C@H](C(=O)O)Cc4ccc(OCCN)c(c4)-c4cc3ccc4O)c(C)n2)cc1 (racemic) [Example 642] |  |  |  |  |  | 71 µM (≈ 60.6 µg/mL) | 1.1 µM (≈ 0.938 µg/mL) | 53 µM (≈ 45.2 µg/mL) | 25 µM (≈ 21.3 µg/mL)
7 | Cc1nc(-c2ccc(C(C)(C)C)cc2C#N)nc(N)c1C(=O)N[C@@H](CNS(N)(=O)=O)C(=O)N(C)[C@@H]1C(=O)N[C@@H](C)C(=O)N[C@H](C(=O)O)Cc2ccc(OC[C@H](O)CN)c(c2)-c2cc1cc(OC[C@H](O)CN)c2O [Example 39, (8S,11S,14S)-14-[[(2S)-2-[[4-amino-2-(4-tert-butyl-2-cyano-phenyl)-6-methyl-pyrimidine-5-carbonyl]amino]-3-(sulfamoylamino)-propanoyl]-methyl-amino]-3,17-bis[(2R)-3-amino-2-hydroxy-propoxy]-18-hydroxy-11-methyl-10,13-dioxo-9,12-diazatri-cyclo[13.3.1.12,6]icosa-1(18),2(20),3,5,15(19), 16-hexaene-8-carboxylic acid] | 24 µM (≈ 24.8 µg/mL) | 24 µM (≈ 24.8 µg/mL) | 2 µM (≈ 2.07 µg/mL) | 8 µM (≈ 8.27 µg/mL) | 1.5 µM (≈ 1.55 µg/mL) |  |  |  | 
8 | Cc1nc(-c2ccc(C3CCC3)cc2)nc(N)c1C(=O)N[C@@H](CNS(N)(=O)=O)C(=O)N(C)[C@@H]1C(=O)N[C@@H](C)C(=O)N[C@H](C(=O)O)Cc2ccc(OC[C@H](O)CN)c(c2)-c2cc1cc(OC[C@H](O)CN)c2O [Example 41, (8S,11S,14S)-14-[[(2S)-2-[[4-amino-2-(4-cyclobutylphenyl)-6-methyl-pyrimidine-5-carbonyl]amino]-3-(sulfamoylamino)-propanoyl]-methyl-amino]-3,17-bis[(2R)-3-amino-2-hydroxy-propoxy]-18-hydroxy-11-methyl-10,13-dioxo-9,12-diazatri-cyclo[13.3.1.12,6]icosa-1(18),2(20),3,5,15(19), 16-hexaene-8-carboxylic acid] | 16 µM (≈ 16.1 µg/mL) | 16 µM (≈ 16.1 µg/mL) | 1 µM (≈ 1.01 µg/mL) | 16 µM (≈ 16.1 µg/mL) | 1 µM (≈ 1.01 µg/mL) |  |  |  | 
9 | Cc1cc(-c2ccc(C(C)(C)C)cc2)nc(N)c1C(=O)N[C@@H](CNS(N)(=O)=O)C(=O)N(C)[C@@H]1C(=O)N[C@@H](C)C(=O)N[C@H](C(=O)O)Cc2ccc(OC[C@H](O)CN)c(c2)-c2cc1cc(OC[C@H](O)CN)c2O [Example 49, (8S,11S,14S)-14-[[(2S)-2-[[2-amino-6-(4-tert-butylphenyl)-4-methyl-pyridine-3-carbonyl]amino]-3-(sulfamoylamino)-propanoyl]-methyl-amino]-3,17-bis[(2R)-3-amino-2-hydroxy-propoxy]-18-hydroxy-11-methyl-10,13-dioxo-9,12-diazatri-cyclo[13.3.1.12,6]icosa-1(18),2(20),3,5,15(19), 16-hexaene-8-carboxylic acid] | 16 µM (≈ 16.1 µg/mL) | 16 µM (≈ 16.1 µg/mL) | 1 µM (≈ 1.01 µg/mL) | 8 µM (≈ 8.06 µg/mL) | 0.5 µM (≈ 0.504 µg/mL) |  |  |  | 

Source: patent US11208387B2, “Macrocyclic broad spectrum antibiotics” (Genentech, Inc., priority 2019, dated 2021)
